Entries after “also recorded” stand apart in the source; their conditions may differ. Where two headings read alike, the source gives them in different places.

These results are taken from patent US8921304B2, “Modified ubiquitin proteins having a specific binding activity for the extradomain B of fibronectin” (Scil Proteins GmbH, priority 2009, dated 2014).

For one series, the system named is EDB expressing cells. In words: binding specificity of the TNF-alpha fusion in cell culture (FIG. 17E). Format: cell-based.
Series [1] concerns the target T1, Human fibronectin lacking the ED-B domain (h6789) (Homo sapiens, UniProt P02751).
T1 construct: Human fibronectin lacking the ED-B domain (h6789)
Briefly: concentration dependent ELISA, negative control fibronectin fragment without ED-B. The following applies: conc.-ELISA, open circles. The series is classed as binding.

In series [2] the target is ED-B containing fibronectin fragment (67B89) (Homo sapiens, UniProt P02751). In words: label-free interaction assay using BIACORE. The series is classed as binding. The procedure:
Different concentrations of the variant were analyzed (for example, 0-200 nM of the variant, preferably 1041-D11) for binding to an ED-B containing fibronectin fragment (referred to as 67B89) immobilized on a CMS-chip (BIACORE®) using methods known to those skilled in the art. The obtained data were processed via the BIAevaluation software and 1:1-Langmuir-fitting. The kinetic binding constants were kon=7.6*10^5 M^−1s^−1; koff=7.7*10^−4 s^−1. The kinetic binding constants were kon=4.5*10^5 M^−1 s^−1; koff 5.0^*10^−4 s^−1.

For another series, the system named is F9 teratoma. Format: in vivo. The following applies: for effect on tumor growth: stage 1. As for the experimental part: To establish the therapeutic efficacy of 1041-D11-TNFalpha, the compound was tested on F9 teratoma (see Borsi et al., 2003 Blood 102, 4384-4392) in mouse models. […] F9 teratoma is an aggressive tumor with high vascular density. […] The experimental schedule for the efficacy study was adapted from Borsi, 2003.
Stage 1 defined the pharmacologic active and tolerable dose with endpoints relating to the ratio of tumor vs. body weight, weight loss and survival. […]
Stage 2 of the study defined the dose-dependent efficacy with Melphalan having as endpoint the retardation of tumor growth (animal weight loss>10%, tumor>10% body weight, ulceration of tumor). In the study, 1041D11/mTNFa, murine TNFa, in combination with melphalan were tested.

The next series relates to L929 cells. In words: L929 apoptosis assay (TNF-alpha activity). The series is classed as cell-based. The procedure: The physiological TNF-alpha-activity of TNF-alpha-modified ubiquitin based ED-B binding fusions has been determined using the L929 apoptosis assay (Flick et al., 1984 J. Immunol. Methods. 68:167-175). In this assay, TNF-alpha efficiently stimulates cell death in actinomycinD sensitized cells at EC50 values in the picomolar range.
Cells have been resuspended in medium containing FBS and antibiotics. A cell suspension of 100 μl of a densitiy of 3.5×10^5 cells/ml has been seeded into the wells of a 96 well standard cell culture plate followed by over night incubation in a humidified CO2 incubator. Thereafter, the culture medium has been removed and 50 μl of medium containing FBS, ActinomycinD and antibiotics has been added to each well followed by a further 30 min incubation time. Thereafter, 50 μl of the test items, TNF-alpha-modified ubiquitin based ED-B binding-fusions or the human recombinant TNF-alpha control, at an appropriate concentration range of between 10^−7 and 10^−18 M, have been added. After a further 48 h incubation time the metabolic activity as a measure of cell survival was determined using WST-1 reagent (Roche).
Per test item at least three independent experiments have been conducted, each of them in triplicates. […]
The quantitative evaluation is based on the EC50-value, i.e. the value according to the test item concentration promoting the survival of half of the cells.

Series [3] concerns human fetal lung fibroblast cells (Wi38). In words: binding to cell culture cells, Wi38. Format: cell-based. The following applies: immunofluorescence. As for the experimental part: (§1) The binding of variant 1041-D11 to cell culture cells was tested. Different cell culture cells were analysed, including normal human fetal lung fibroblast cells having high expression levels of ED-B (Wi38 cells), a mouse embryonic fibroblast cell line (Balb 3T3); a stromal cell line, derived from mouse bone marrow (ST-2) monocytes/macrophages (RAW 264.7), NHDF cells and murine fibroblast cells (LM).
The negative control cell type NHDF are primary normal fibroblast cells, which express low levels of EDB-fibronectin (data not shown).
The negative control cells type NHDF are primary normal fibroblast cells, which express low levels of EDB-fibronectin. The cells were plated in chamber-slides (NUNC, 60000 cells/ml). To analyses the binding potential the cells were fixed with 100% MeOH for 5 min at −20° C. To block unspecific binding, the cells were incubated with 5% Horse-serum 1 h 37° C. The cells were tested with the variant 1041-D11, an ED-B specific antibody FV28 CH4/F1 as positive control or UB—2 as negative control with different concentrations 1 h RT. The proving occurred about an incubation with rabbit-a-Strep-Tag-IgG (obtained from GenScript A00875, 1:500) for 1 h and incubation with a-rabbit-IgG*Alexa488-AK (obtained from Invitrogen A11008, 1:1000) for 1 h. The nuclei were stained with DAPI. […] The first 2 lines show the variant and positive control on Wi38-cell line.

Series [4] has as its system 48 tissues in FDA relevant panel. Briefly: tissue panel staining (48 tissues). Format: binding.
The next series deals with murine Balb 3T3-cells. In words: binding to cell culture cells, Balb 3T3. The series is classed as cell-based. The following applies: 1, 10, 50 nM. The procedure:
as §1
(§2) Similar experiments were performed using different cells types, for example Balb3T3 (ATCC, Kat-Nr. 30-2002), Raw (Lonza, Kat-Nr. BE12-115F/U1), ST-2 (Lonza, Ka t-Nr. BE12-115F/U1).

The next series addresses ED-B (Homo sapiens, UniProt P02751). Briefly: ED-B binding analysis, method not stated (FIG. 7, general statements).
Series [5] concerns the target T2, fibronectin fragment 6789 without ED-B (Homo sapiens, UniProt P02751).
T2 construct: fibronectin fragment 6789 without ED-B
Briefly: complex-formation analysis by SE-HPLC with 6789. The series is classed as binding. The following applies: 0.72 nmol each, 1 h at RT. The procedure:
(§3) For the analysis of complex formation, Tricorn Superdex 75 5/150 GL columns (GE-Healthcare) (V=3 ml) was used, protein amount of 50 μl was applied. Further conditions: buffer: 1×PBS, pH 7.3, flow-rate: 0.3 ml/min, run: 45 min (injection of sample: after 15 min). Condition: 0.72 nmol 1041-D11 protein+0.72 nmol ED-B (herein referred to 67B89 or also as a negative control 6789) incubated for 1 h at RT; then applied to column for analysis of complex-formation. In FIGS. 14A and 14B, only the variant is shown in black, only the target ED-B is shown in blue, the variant binding building a complex with ED-B in pink.

Another series has as its system murine ST-2-cells. Briefly: binding to cell culture cells, ST-2. Format: cell-based. The following applies: 1, 10, 50 nM. The procedure: as §1, §2
Series [6] has as its target T3, ED-B (F9 tumor vasculature) (Mus musculus, UniProt P11276).
T3 construct: 1041-D11 specifically decorates the vasculature in tissue sections from F9 tumors; from tissue; host or cells: F9 tumor tissue sections from mice
In words: immunohistochemistry on F9 tumor tissue sections. The series is classed as binding, mice. The following applies: seven samples; 10 nM to 100 nM / 500 nM. As for the experimental part: F9 tumor tissues from seven samples were evaluated. […] ED-B is a highly specific marker for tumor vasculature. The target protein EDB is located on the abluminal side of the vessels. 1041-D11 specifically decorates the vasculature in tissue sections from F9 tumors. […] Thus, fusion proteins based on modified ubiquitin specifically binding to ED-B are suitable an ED-B based targeted therapy for cancer.

The target of series [7] is fibronectin fragment 67B89 (ED-B) (Homo sapiens, UniProt P02751). In words: complex-formation analysis by SE-HPLC with 67B89. The following applies: 0.72 nmol each, 1 h at RT. The series is classed as binding. The procedure: as §3
A further series concerns F9 tumor tissues. Briefly: accumulation in F9 tumor tissue. Format: in vivo, mice. The following applies: time points between 30 min and 16 h.

Chain of ED-B containing fibronectin fragment (67B89) (P02751 1085-1537 limits assumed): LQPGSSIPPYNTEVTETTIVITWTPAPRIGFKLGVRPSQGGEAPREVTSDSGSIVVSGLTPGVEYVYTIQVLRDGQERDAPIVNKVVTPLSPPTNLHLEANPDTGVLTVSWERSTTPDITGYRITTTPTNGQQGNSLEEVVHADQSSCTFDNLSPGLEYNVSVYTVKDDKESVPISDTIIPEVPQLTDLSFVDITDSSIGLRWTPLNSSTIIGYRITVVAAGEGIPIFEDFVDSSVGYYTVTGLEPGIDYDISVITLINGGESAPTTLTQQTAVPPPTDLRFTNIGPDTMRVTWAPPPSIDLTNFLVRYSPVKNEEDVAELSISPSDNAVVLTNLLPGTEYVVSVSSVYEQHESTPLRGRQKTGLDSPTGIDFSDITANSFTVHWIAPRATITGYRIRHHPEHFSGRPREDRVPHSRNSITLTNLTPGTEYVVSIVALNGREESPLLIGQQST
Chain of fibronectin fragment 67B89 (ED-B) (P02751 1085-1537 limits assumed): as above
T1 sequence (P02751 1085-1446 isoform P02751-1): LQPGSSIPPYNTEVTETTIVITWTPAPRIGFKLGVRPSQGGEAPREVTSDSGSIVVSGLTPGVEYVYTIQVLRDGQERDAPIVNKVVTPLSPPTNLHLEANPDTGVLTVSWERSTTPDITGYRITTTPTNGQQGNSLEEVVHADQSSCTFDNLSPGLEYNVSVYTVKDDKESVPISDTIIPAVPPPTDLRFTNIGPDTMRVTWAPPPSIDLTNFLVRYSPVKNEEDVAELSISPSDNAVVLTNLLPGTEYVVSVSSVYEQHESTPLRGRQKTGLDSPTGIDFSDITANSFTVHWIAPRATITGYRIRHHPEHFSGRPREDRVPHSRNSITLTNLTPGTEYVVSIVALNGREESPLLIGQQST
T2 sequence (P02751 1089-1449 isoform P02751-1): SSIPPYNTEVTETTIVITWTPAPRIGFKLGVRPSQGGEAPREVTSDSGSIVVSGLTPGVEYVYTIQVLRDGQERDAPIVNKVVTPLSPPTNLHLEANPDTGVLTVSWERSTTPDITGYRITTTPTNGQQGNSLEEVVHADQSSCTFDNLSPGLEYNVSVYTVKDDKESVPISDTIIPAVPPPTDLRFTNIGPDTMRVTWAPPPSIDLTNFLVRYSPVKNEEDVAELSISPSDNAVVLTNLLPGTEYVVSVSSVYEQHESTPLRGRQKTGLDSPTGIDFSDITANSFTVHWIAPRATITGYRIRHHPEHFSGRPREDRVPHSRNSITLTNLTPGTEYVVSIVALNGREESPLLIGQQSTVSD
Chain of ED-B (P02751 1266-1356 limits assumed): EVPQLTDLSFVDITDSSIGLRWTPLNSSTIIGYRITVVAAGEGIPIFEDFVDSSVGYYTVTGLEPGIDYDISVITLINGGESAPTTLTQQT
T3 sequence (P11276 33-2477): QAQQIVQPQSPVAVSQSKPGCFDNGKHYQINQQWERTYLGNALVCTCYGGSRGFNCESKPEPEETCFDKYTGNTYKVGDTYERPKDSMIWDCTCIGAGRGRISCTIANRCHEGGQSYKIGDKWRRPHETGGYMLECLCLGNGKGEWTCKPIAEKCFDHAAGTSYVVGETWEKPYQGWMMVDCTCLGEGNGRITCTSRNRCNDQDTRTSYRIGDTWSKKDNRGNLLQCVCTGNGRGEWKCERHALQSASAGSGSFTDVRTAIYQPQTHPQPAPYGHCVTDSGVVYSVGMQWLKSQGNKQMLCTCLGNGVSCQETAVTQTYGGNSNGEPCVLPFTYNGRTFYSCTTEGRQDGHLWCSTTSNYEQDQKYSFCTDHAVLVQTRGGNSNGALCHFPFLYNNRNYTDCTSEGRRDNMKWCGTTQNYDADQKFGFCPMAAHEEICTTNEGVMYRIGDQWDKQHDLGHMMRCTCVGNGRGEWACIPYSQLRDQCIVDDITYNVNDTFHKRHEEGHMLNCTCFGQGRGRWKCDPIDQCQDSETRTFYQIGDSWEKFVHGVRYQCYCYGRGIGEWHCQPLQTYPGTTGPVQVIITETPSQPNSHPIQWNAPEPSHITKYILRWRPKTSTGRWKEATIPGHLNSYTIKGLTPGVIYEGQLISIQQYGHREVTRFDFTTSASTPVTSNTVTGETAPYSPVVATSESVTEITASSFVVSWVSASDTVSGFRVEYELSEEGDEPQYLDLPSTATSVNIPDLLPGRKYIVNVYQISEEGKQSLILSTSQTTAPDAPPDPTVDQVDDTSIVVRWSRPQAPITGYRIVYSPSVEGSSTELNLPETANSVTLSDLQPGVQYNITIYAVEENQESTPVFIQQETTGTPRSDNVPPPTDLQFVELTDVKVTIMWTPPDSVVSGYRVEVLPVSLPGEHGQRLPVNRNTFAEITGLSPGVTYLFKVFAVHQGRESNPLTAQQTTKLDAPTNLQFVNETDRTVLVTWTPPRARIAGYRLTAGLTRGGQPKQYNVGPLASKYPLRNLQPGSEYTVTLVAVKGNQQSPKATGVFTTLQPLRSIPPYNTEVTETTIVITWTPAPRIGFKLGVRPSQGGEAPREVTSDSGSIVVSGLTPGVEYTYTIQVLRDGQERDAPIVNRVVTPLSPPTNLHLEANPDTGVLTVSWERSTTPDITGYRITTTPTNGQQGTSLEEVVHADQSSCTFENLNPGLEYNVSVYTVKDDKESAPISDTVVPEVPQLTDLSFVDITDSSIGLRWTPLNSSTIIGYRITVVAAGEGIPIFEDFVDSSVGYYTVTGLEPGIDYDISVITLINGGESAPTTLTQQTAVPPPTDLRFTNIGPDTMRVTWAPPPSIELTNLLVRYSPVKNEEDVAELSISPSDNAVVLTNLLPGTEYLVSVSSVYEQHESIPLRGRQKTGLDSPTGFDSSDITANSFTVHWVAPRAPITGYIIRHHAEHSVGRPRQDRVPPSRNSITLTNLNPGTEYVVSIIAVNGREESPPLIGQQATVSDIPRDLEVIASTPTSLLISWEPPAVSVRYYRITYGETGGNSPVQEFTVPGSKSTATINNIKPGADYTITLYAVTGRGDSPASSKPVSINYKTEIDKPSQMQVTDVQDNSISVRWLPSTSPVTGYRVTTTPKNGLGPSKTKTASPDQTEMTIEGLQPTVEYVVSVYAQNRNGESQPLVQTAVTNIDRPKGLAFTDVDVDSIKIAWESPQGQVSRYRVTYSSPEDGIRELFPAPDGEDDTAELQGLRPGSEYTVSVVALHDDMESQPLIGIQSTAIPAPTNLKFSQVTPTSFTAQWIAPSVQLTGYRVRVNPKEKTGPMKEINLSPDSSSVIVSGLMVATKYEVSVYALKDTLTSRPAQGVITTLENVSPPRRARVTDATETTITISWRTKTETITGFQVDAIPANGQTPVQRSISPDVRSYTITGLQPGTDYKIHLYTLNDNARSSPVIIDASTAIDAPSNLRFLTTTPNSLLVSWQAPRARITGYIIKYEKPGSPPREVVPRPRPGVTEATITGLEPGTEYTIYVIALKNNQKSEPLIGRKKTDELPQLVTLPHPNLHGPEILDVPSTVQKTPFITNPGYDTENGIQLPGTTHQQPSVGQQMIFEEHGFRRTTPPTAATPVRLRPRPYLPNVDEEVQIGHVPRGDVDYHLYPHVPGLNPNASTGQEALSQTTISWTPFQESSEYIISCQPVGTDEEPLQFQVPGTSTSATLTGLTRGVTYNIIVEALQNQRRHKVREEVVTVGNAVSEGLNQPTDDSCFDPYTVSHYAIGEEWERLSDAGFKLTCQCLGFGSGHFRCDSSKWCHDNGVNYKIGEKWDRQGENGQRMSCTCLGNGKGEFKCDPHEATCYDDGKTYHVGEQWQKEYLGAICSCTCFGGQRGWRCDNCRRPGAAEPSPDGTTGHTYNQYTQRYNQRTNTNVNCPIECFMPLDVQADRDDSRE

As to “1041-D11-TNFalpha: fusion protein of hetero-dimeric variant 1041-D11 and TNFα (mouse or human)”, the “binding to EDB expressing cells” value in the series with EDB expressing cells (target(+)) is “specifically binds”. The “cross reaction in serum without ED-B” value in the series with EDB expressing cells (target(−)) is “no cross reaction”. Moreover, in [1], the “binding to negative control fragment 6789” value is on record as “not bound”. In addition, in series [2], the kon is 450000 M⁻¹ s⁻¹. Moreover, the relative tumor growth entry in the series on F9 teratoma (in combination with Melphalan, 7 days, versus mTNFalpha with Melphalan or Melphalan alone) is on record as “reduces the relative tumor growth more efficiently”. Moreover, the “effect on tumor growth” value in the series on F9 teratoma (highest dose (6.75 μmol/g)) is recorded as “no suppressing effect on tumor growth”; in the series with F9 teratoma (lowest dose (0.25 pmol/g)), “seems to retard tumor growth”. The “apoptosis inducing TNF-alpha activity” value in the series with L929 cells is recorded as “as active as free TNF-alpha”.
In the case of “1041-D11: hetero-dimeric ubiquitin variant: K6W, L8W, K63R, E64K, S65F, T66P; second module K6T, L8Q, Q62W, K63S, E64N, S65W, T66E, Q2R”, the “binding on vital Wi38 cells” value in series [3] (different concentrations) is “binds to vital Wi38 cells with high specificity”. Moreover, the “binding on fixed Wi38 cells” value in series [3] (58.7 nM and 587 nM) was “binds to fixed Wi38 cells with high specificity”. For the same substance, in [4], the “unspecific staining in 48 tissues” value is given as “no unspecific staining”. In addition, the “binding to negative control fragment 6789” value in series [1] is “no binding”. The “binding on fixed murine Balb 3T3-cells” value in the series on murine Balb 3T3-cells is on record as “binds to murine Balb 3T3 cells with high specificity”. In addition, in series [2], the koff worked out at 0.00077 s⁻¹ and the kon worked out at 760000 M⁻¹ s⁻¹. In the series with ED-B, the ED-B binding activity entry is recorded as “superior ED-B binding activity”. Further, in series [5], the “complex formation with 6789 (no ED-B)” value was “no significant binding; also recorded: no complex”. The “binding on fixed murine ST-2-cells” value in the series with murine ST-2-cells is “binds to murine Balb ST-2 cells with high specificity”. In addition, the “staining of F9 tumor tissue sections” value in series [6] was “ED-B specific vascular staining”. Further, the “complex formation with 67B89 (ED-B)” value in series [7] is listed as “formation of a complex; also recorded: builds a complex”. The “accumulation in F9 tumor tissue” value in the series with F9 tumor tissues is on record as “enriched”.
